From ChEMBL document CHEMBL5465560, “Selectivity Literature for EUbOPEN Chemogenomic Library” (2024)
Each block holds one molecule with its values, some of them ahead of it.

Experiments:
[1] = molecular target: Casein kinase II subunit alpha' (Homo sapiens) (UniProt P19784); assay: Selectivity interaction (Kinase panel (literature)) EUB0001199aCl CSNK2A2; details: at 1 µM
[2] = molecular target: T1, Inhibitor of nuclear factor kappa-B kinase subunit beta (Homo sapiens) (UniProt O14920); assay: Selectivity interaction (Kinase panel (literature)) EUB0001199aCl IKBKB; details: at 1 µM
T1 sequence (whole entry): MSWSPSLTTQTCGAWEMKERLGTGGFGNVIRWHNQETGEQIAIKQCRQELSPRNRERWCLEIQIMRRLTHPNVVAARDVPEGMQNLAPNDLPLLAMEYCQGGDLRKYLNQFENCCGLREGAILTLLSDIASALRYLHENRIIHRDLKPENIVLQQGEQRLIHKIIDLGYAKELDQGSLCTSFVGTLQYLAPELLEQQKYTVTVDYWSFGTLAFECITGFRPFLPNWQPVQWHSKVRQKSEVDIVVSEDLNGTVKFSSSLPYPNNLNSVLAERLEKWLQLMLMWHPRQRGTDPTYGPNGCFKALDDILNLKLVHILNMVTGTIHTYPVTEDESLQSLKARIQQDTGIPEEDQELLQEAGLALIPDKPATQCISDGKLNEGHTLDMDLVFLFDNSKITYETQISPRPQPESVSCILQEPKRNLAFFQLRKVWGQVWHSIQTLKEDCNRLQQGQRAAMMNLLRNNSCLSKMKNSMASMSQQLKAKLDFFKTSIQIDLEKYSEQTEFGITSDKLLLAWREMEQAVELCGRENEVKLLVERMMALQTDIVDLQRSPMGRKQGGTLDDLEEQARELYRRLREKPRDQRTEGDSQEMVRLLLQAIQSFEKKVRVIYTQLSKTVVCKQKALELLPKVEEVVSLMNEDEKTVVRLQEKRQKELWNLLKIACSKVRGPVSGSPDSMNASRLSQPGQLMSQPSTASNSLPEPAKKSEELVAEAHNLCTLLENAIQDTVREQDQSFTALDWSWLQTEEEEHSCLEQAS

[3] = molecular target: T2, Myotonin-protein kinase (Homo sapiens) (UniProt Q09013); assay: Selectivity interaction (Upstate Kinase Profiler service (Millipore)) EUB0000056c DMPK; details: at 1 µM
T2 sequence (whole entry): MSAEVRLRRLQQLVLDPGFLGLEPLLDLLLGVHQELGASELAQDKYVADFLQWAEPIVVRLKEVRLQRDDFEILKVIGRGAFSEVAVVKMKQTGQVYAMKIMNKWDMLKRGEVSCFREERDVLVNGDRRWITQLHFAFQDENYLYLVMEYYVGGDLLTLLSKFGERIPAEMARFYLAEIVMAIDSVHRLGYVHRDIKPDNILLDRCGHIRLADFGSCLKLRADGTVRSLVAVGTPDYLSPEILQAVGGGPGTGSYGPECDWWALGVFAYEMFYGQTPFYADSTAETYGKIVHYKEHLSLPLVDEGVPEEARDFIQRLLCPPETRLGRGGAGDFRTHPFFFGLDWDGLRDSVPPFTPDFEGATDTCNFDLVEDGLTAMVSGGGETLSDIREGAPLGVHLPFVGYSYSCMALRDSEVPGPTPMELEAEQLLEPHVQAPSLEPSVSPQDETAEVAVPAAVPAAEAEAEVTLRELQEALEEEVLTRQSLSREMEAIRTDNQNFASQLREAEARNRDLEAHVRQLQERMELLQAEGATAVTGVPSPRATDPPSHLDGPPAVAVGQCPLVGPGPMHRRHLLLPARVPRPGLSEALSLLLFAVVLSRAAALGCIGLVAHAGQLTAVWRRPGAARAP

[4] = molecular target: Mitogen-activated protein kinase kinase kinase 4 (Homo sapiens) (UniProt Q9Y6R4); assay: Selectivity interaction (ActivX KiNativ screen (kinase selectivity in THP-1 cell lysates)) EUB0000639a MAP3K4; format: subcellular; details: lysate
Chain of Mitogen-activated protein kinase kinase kinase 4 (Homo sapiens) (Q9Y6R4 whole entry): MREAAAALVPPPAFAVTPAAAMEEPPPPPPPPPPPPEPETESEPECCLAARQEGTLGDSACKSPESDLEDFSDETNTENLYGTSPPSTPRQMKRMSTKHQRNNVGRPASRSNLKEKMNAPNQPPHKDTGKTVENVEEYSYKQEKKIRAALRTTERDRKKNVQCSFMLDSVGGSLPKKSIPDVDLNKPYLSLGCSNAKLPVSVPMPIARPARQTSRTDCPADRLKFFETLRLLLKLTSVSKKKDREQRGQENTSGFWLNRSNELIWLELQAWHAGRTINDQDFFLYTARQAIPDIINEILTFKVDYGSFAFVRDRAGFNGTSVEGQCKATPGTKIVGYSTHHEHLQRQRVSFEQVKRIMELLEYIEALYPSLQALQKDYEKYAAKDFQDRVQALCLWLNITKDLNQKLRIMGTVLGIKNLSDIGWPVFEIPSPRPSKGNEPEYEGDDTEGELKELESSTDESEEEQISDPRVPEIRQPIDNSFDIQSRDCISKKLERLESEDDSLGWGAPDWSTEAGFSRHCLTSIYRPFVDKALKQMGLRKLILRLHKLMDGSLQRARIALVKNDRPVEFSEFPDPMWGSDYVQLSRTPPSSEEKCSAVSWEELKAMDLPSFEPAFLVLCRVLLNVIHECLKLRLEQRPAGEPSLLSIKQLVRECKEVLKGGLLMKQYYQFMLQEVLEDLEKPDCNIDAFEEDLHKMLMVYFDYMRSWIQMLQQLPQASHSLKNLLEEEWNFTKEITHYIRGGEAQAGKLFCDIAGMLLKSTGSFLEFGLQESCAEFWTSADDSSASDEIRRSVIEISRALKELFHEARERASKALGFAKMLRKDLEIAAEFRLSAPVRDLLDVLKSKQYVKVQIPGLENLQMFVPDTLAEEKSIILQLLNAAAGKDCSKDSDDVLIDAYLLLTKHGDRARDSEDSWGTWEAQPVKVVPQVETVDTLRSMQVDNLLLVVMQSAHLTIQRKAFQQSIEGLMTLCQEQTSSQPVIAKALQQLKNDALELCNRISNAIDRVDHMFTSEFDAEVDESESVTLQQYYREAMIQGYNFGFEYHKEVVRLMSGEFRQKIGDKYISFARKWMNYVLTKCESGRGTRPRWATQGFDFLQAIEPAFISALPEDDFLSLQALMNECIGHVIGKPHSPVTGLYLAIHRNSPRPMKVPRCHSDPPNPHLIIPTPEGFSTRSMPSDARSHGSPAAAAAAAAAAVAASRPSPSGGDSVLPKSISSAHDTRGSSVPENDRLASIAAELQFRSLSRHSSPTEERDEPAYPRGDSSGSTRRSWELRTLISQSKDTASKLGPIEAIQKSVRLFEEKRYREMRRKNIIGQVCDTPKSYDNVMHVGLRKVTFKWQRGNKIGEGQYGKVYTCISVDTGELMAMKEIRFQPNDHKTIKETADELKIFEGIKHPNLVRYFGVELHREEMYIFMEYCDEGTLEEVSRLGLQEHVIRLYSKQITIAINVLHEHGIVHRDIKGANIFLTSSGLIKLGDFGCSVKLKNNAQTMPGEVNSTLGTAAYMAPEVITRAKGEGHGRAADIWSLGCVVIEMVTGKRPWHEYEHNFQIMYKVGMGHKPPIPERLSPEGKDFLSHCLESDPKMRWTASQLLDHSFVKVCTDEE

Aurora kinase B = Aurora kinase B (Homo sapiens, UniProt Q96GD4); assay: Selectivity interaction (KinomeScan (DiscoverX)) EUB0000595a AURKB; details: at 10 µM
Chain of Aurora kinase B (Q96GD4 whole entry): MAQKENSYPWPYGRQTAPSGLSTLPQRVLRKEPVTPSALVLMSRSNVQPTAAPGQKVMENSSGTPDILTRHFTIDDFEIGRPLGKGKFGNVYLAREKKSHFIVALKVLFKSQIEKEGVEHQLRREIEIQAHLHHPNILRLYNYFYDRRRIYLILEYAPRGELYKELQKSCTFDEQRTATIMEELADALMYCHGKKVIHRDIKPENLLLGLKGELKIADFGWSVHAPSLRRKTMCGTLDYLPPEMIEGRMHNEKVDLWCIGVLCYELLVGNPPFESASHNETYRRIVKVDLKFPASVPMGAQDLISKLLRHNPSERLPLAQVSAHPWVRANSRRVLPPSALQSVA

[5] = molecular target: T3, Serine/threonine-protein kinase Nek5 (Homo sapiens) (UniProt Q6P3R8); assay: Selectivity interaction (KinomeScan (DiscoverX)) EUB0001079a NEK5; details: at 1 µM
T3 sequence (whole entry): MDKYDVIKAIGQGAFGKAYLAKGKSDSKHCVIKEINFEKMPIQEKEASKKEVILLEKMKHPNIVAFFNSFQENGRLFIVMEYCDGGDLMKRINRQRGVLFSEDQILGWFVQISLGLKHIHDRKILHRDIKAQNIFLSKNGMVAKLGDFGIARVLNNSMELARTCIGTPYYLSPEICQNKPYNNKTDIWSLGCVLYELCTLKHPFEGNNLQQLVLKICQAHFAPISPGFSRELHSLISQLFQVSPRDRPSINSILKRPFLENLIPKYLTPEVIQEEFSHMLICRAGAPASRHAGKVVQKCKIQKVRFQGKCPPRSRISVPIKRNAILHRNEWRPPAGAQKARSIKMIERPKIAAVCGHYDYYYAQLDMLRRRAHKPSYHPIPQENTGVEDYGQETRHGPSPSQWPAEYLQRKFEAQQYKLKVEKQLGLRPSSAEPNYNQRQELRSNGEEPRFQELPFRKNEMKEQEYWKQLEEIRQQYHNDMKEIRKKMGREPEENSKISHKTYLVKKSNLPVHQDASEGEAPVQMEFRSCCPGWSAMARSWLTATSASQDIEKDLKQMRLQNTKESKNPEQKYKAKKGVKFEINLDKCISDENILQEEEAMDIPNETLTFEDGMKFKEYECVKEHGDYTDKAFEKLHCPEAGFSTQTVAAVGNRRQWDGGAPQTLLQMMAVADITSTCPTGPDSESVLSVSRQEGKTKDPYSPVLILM

[6] = molecular target: T4, Serine/threonine-protein kinase 17B (Homo sapiens) (UniProt O94768); assay: Selectivity interaction (KinomeScan (DiscoverX)) EUB0001079a STK17B; details: at 1 µM
T4 sequence (whole entry): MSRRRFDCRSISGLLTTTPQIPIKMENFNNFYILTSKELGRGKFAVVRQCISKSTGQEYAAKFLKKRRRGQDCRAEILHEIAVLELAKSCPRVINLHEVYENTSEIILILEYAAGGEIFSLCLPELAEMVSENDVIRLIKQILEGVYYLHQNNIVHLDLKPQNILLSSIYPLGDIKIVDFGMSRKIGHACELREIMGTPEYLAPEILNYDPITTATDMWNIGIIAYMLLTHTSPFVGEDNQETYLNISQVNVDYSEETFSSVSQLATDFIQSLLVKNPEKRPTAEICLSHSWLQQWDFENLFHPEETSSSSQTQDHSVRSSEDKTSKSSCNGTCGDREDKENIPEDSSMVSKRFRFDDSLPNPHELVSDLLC

[7] = molecular target: Homeodomain-interacting protein kinase 2 (Homo sapiens, UniProt Q9H2X6); assay: Selectivity interaction (KinomeScan (DiscoverX)) EUB0000618a HIPK2; details: at 10 µM
Chain of Homeodomain-interacting protein kinase 2 (Q9H2X6 whole entry, looked up): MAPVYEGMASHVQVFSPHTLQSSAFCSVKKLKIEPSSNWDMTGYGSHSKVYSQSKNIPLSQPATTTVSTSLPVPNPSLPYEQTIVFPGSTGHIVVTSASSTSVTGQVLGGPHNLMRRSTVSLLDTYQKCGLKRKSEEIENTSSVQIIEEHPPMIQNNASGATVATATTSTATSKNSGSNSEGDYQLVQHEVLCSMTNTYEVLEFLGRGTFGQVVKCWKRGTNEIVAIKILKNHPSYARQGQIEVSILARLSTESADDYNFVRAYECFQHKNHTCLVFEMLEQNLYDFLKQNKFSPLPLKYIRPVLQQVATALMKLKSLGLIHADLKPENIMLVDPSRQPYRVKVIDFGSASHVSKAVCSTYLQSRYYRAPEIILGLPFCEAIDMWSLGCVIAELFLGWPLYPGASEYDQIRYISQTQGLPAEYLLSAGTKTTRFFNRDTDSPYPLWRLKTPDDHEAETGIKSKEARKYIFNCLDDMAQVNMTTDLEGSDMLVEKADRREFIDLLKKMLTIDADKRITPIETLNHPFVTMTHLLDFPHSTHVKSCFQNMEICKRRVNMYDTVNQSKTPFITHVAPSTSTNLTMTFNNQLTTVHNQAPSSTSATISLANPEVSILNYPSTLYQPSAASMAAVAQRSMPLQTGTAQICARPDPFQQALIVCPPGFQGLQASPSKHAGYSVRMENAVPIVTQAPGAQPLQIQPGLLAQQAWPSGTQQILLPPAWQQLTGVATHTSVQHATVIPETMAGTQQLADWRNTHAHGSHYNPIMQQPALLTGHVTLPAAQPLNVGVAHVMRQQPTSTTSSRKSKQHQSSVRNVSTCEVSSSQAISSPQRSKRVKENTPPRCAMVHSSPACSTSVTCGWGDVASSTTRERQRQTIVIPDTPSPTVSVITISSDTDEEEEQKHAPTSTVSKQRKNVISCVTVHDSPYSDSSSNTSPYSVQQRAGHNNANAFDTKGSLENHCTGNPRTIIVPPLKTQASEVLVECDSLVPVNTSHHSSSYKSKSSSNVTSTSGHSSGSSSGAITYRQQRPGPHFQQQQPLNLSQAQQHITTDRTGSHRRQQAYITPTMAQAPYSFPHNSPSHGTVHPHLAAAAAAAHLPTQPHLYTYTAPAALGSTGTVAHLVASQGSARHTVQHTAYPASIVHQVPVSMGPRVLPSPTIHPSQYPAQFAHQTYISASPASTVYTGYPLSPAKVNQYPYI

[8] = molecular target: Ribosomal protein S6 kinase alpha-6 (Homo sapiens, UniProt Q9UK32); assay: Selectivity interaction (KinomeScan (DiscoverX)) EUB0001619a RPS6KA6; details: at 1 µM
Chain of Ribosomal protein S6 kinase alpha-6 (Q9UK32 whole entry): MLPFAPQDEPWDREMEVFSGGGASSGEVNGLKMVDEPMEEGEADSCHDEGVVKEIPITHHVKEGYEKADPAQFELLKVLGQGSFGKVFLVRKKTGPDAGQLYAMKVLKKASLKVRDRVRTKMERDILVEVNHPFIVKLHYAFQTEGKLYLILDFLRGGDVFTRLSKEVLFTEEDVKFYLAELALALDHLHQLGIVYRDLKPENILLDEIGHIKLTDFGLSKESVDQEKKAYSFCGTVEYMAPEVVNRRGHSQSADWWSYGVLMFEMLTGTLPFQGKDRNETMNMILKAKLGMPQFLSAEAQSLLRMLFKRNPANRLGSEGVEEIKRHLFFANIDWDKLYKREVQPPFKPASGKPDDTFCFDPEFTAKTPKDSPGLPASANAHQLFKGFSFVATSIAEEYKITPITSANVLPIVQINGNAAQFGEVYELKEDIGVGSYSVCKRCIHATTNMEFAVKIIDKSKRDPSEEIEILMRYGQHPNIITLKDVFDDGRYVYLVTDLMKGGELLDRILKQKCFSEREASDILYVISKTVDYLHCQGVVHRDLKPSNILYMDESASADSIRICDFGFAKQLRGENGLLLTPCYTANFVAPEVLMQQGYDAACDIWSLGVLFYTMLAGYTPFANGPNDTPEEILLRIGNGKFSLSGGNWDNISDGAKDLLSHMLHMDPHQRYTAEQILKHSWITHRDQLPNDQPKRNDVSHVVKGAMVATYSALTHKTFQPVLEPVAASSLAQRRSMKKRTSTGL

Chain of Casein kinase II subunit alpha' (Homo sapiens) (P19784 whole entry, looked up): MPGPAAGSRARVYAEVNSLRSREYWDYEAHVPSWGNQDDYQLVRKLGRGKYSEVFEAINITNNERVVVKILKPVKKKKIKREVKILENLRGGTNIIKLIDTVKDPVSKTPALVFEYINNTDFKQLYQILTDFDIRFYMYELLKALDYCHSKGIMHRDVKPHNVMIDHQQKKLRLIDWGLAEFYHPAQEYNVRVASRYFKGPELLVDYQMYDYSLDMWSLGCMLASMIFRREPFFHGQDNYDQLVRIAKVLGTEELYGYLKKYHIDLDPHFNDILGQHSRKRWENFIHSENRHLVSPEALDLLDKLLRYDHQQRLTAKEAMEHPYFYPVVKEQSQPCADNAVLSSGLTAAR

% of inhibition [1]: 2% | % of inhibition [2]: 4%
SMILES: CN1Cc2nccc(-c3cn(C)nc3-c3ccc(F)cc3)c2C1=O

% of inhibition [3]: -8%
SMILES: Cc1ccc(-c2ccc3c(ccc4sc5c(c43)NC[C@@H](C)NC5=O)n2)cn1

% of inhibition ([4]; at 0.01 µM): 18.5% | % of inhibition ([4]; at 0.04 µM): -5.7% | % of inhibition ([4]; at 0.2 µM): -1.4% | % of inhibition ([4]; at 1 µM): -23% | % of inhibition ([4]; at 5 µM): 6.4%
SMILES: CC[C@@H]1[C@H](F)C(=O)N[C@@H]1COc1nccc2cc(C(N)=O)c(OC)cc12 [ZIMLOVISERTIB]

SMILES: COCC(=O)NC/C=C/c1ccc2ncnc(Nc3ccc(Oc4ccc(C)nc4)c(C)c3)c2c1 [CP-724714]
% of control (Aurora kinase B): 100%

SMILES: Nc1cnc(N2CCc3cc(S(=O)(=O)Nc4c(F)cc(Cl)cc4F)cc(N4CCCC4=O)c32)nc1 [TP-020n]
% of control [5]: 100% | % of control [6]: 100%

SMILES: O[C@H]1CC[C@H](Nc2ncc3nc(Nc4c(F)cc(F)cc4F)n([C@H]4CCOC4)c3n2)CC1
% of control [7]: 86%

SMILES: N#Cc1cccc(-c2c[nH]c3ncnc(N4CCOCC4)c23)c1
% of control [8]: 29%
